“Also recorded” adds a separate entry of the source.
How the values were obtained:
[1] = tested on: pGL3 Control vector (Promega) DNA; test: Pre-cast DNA gel staining; type: binding; details: 0.9% agarose, dye 1 μg/ml; for amount of DNA clearly detected per lane, pre-cast gel staining: 300 nm UV transilluminator (FIG. 4); for sensitivity for detecting DNA on gel compared with TO, pre-cast gel staining: same conditions as TO
Method: (§1) FIGS. 4A-4B show a representation of pre-cast DNA gel staining with Compound 5 versus Thiazole Orange. Serial dilutions of a DNA sample (86, 43, 21.5, 10.7, 5.3, 2.6, 1.3, 0.5 ng/lane) are detected with Thiazole Orange or Compound 5. Compound 5 can clearly detect 5.3 ng DNA while TO can only detect 43 ng.
An agarose gel solution (0.9% agarose) is prepared following a standard protocol (J. Roskams et al., Lab Ref A Handbook of Recipes, Reagents, and Other Reference Tools for Use at the Bench, Cold Spring Harbor Laboratory Press, Cold Spring Harbor, N.Y., 2002). A stock solution of a cyanine dye in DMSO is prepared. An aliquot of the stock solution of dye is added to the gel solution, while it is hot, resulting in an effective working concentration of the dye (1 μg/ml). The resulting solution is thoroughly mixed by swirling. The resulting gel solution is poured onto a gel slab to cast the gel. Serial two-fold dilutions of pGL3 Control vector (Promega) are made and the resulting DNA samples are loaded onto the gel in eight lanes from left to right with a loading of 86, 43, 21.5, 10.7, 5.3, 2.6, 1.3, 0.5 ng/lane, respectively. The DNA samples are electrophoretically separated in 1×TAE buffer using a standard protocol. The resulting gel is then viewed using a UV transilluminator with 300 nm excitation. Photographs of the illuminated gels are taken with an EB filter.

[2] = tested on: HeLa cells; test: Cellular nucleic acid staining of live and fixed cells; type: cell-based; details: dye 1 μg/ml in PBS, live or fixed HeLa cells, 30 min, fluorescence microscope (FIG. 6)
Method: A cyanine dye (1 μg/ml) in PBS buffer is incubated with live or fixed HeLa cells in 96-well plate for 30 min respectively. The fluorescence image of cells is taken with a fluorescence microscope.
A cyanine dye (1 μg/ml) in PBS buffer (prepared from 1 mM DMSO stock solution) is incubated with live and fixed HeLa cells in 96-well plate for 30 min respectively.

[3] = tested on: Calf thymus DNA; test: Fluorescence emission spectra in the presence or absence of DNA; type: binding; details: dye 5 ug/ml, DNA 3 ug/ml, Tris Buffer pH=8.0 (FIG. 2)
Method: Absorption and fluorescence spectra of cyanine compounds are measured in the presence or absence of DNA in Tris buffer (pH=8.0). […]

[4] = tested on: HeLa cells; test: Cellular cytotoxicity (cell viability, WST kit); type: cell-based; details: 0-100 ug/mL dye, 24 hours (FIG. 7)
Method: HeLa cells are plated in a 96-well plate (100 μL volume). Next day, to each 100 ul of cells is added 100 ul cyanine solution to make a series of cell samples with the final cyanine dye concentrations of 0, 0.31, 0.62, 1.6, 3.12, 6.25, 12.5, 25, 50, 100 ug/mL respectively. The cell viabilities are measured and plotted for each sample.
HeLa cells are plated in a 96-well plate (100 μL volume). Next day, to each 100 ul of cells is added 100 ul cyanine solution to make a serial cell samples with the final cyanine dye concentrations of 0, 0.31, 0.62, 1.6, 3.12, 6.25, 12.5, 25, 50, 100 ug/mL respectively (total volume is 200 μL for each sample), The cells are incubated in the cyanine-containing media for 24 hours. The cell viabilities are measured with Cell Meter™ Colorimetric WST-5′ Cell Quantification Kit (AAT Bioquest) according to the product instruction.

[5] = tested on: S. typhimurium; test: Mutagenicity test with S9 liver extract, colony count; type: cell-based; details: 0.2, 1 and 5 ug/plate, 48 hours at 37° C. (FIG. 8)
Method: Mutagenicity tests are performed as described in Example 23.
Tubes of top agar are liquified and cooled to 55-60° C. 0.3 mL of histidine/biotin stock (Presque Isle Cultures) is added alongside 20 uL of S9 liver extract. (Sigma). To the top agar tubes 0.1 mL of S. typhimurium (Grown overnight at 37° C. in TSB culture) is added with 1 mL serological pipette. The mixture is thoroughly mixed by vortexing at low speed. The culture mixture is poured into the plates of the glucose-minimal salts agar plates. With the sterile loops, a disk on its edge is placed near the center of the plate. A serial concentrations of cyanine compounds (0.2, 1 and 5 ug/plate) are added to saturate the disk with a sterile Pasteur pipette. Sterile water is used with the same volume as a negative control. The plates are incubated for 48 hours at 37° C., and the colonies are counted near the disk.

[6] = tested on: Calf thymus DNA; test: DNA responses in solution (fluorescence vs DNA concentration); type: binding; details: Tris Buffer pH=8.0, serial DNA dilutions, microtiter plate reader (FIG. 3)
Method: The fluorescence intensities of Compound 5 are measured in the presence of serial dilutions of a DNA sample (0, 3.12, 6.25, 12.5, 25, 50, 100, 1000 ng/ml).
The fluorescence of a cyanine compound in 100 μL of Tris Buffer (pH=8.0) are measured in the presence of 0, 0.21, 0.62, 1.85, 5.6, 16.7, and 50 μg/ml final concentrations of Calf thymus DNA with a microtiter plate reader. The fluorescence is plotted against DNA concentration.

[7] = tested on: pGL3 Control vector (Promega) DNA; test: Post-DNA gel staining; type: binding; details: 0.9% agarose, dye 1 ug/ml, same conditions as TO
Method: as §1, with “FIGS. 5A-5B” for “FIGS. 4A-4B”, “of post-DNA” for “of pre-cast DNA”, “detect 1.3” for “detect 5.3”, “detect 21.5” for “detect 43”
Agarose gels (0.9% agarose) are prepared following a standard protocol (J. Roskams et al., Lab Ref A Handbook of Recipes, Reagents, and Other Reverence Tools for Use at the Bench, Cold Spring Harbor Laboratory Press, Cold Spring Harbor, N.Y., 2002). Serial two-fold dilutions of pGL3 Control vector (Promega) are made and the resulting DNA samples are loaded onto an agarose gel in eight lanes from left to right with a loading of 86, 43, 21.5, 10.7, 5.3, 2.6, 1.3, 0.5 ng/lane, respectively. The DNA samples are electrophoretically separated in 1×TAE buffer using a standard protocol. A stock solution of a cyanine dye in DMSO at about 12 mM concentration is prepared. The stock solution of dye is diluted using an appropriate aqueous solvent to provide a staining solution with an appropriate effective working concentration of the dye (1 ug/ml). The agarose gel is submerged in the staining solution for approximately 30 minutes to stain the gel. The resulting gel is then viewed using a UV transilluminator with 300 nm excitation. […]

SMILES	amount of DNA clearly detected per lane, pre-cast gel staining [1]	live cell permeability [2]	fluorescence enhancement in the presence vs absence of DNA, compared with TO [3]	cell toxicity compared with SYBR Green [4]	mutagenicity compared with SYBR Green [5]	fluorescence signal in response to increasing DNA concentrations, compared with TO [6]	sensitivity for detecting DNA on gel compared with TO, post-gel staining [7]	sensitivity for detecting DNA on gel compared with TO, pre-cast gel staining [1]
CN1/C(=C/c2cc[n+](C)c3ccccc23)Sc2ccccc21 [TO, Thiazole Orange, reference compound]	43 ng	can readily penetrate the cells						
NCCCCN1C(c2ccccc2)=C/C(=C\c2sc3ccccc3[n+]2CCCCN)c2ccccc21 [Compound 5]	5.3 ng	live cell impermeant	stronger fluorescence enhancements than TO	significantly lower cell toxicity than SYBR Green; also recorded: much lower cell toxicity than SYBR Green	significantly lower mutagenicity than SYBR Green; also recorded: much low mutagenicity than SYBR Green	significantly higher fluorescence signals than Thiazole orange (TO); also recorded: stronger fluorescence signals than TO		
CC(=O)NCCCCN1C(c2ccccc2)=C/C(=C\c2sc3ccccc3[n+]2CCCCNC(C)=O)c2ccccc21 [Compound 6]		cell impermeability	stronger fluorescence enhancements than TO	lower cell toxicity compared to SYBR Green; also recorded: much lower cell toxicity than SYBR Green	significantly lower mutagenicity than SYBR Green; also recorded: much lower mutagenicity than SYBR Green	stronger fluorescence signals than TO	significantly higher sensitivity for detecting DNA on gel than TO; also recorded: much higher sensitivity for detecting DNA on gel than TO	significantly higher sensitivity for detecting DNA on a gel than TO; also recorded: much higher sensitivity for detecting DNA on gel than TO
OCCCCN1C(c2ccccc2)=C/C(=C\c2sc3ccccc3[n+]2CCCCO)c2ccccc21 [Compound 4]		cell impermeability	stronger fluorescence enhancements than TO	lower cell toxicity compared to SYBR Green; also recorded: much lower cell toxicity than SYBR Green	significantly lower mutagenicity than SYBR Green; also recorded: much lower mutagenicity than SYBR Green	stronger fluorescence signals than TO; also recorded: linearly responded to the DNA concentrations with better sensitivity than TO	significantly higher sensitivity for detecting DNA on gel than TO; also recorded: much higher sensitivity for detecting DNA on gel than TO	significantly higher sensitivity for detecting DNA on a gel than TO; also recorded: much higher sensitivity for detecting DNA on gel than TO

Source: patent US12169166B2, “Fluorogenic cyanine compounds for detecting nucleic acids” (AAT Bioquest, Inc., priority 2021, dated 2024)
